Measured values: patent US20240124434A1, “ATF6 INHIBITORS AND USES THEREOF” (Altos Labs, Inc., priority 2018, published 2024)
Counter-ions that a name gives are not always drawn. Like-named read-outs stand apart in the source and are kept apart here.

Tested on: ATF6
Assay: ERSE ATF6-luciferase reporter assay (thapsigargin-induced ER stress)
Type: cell-based, human
Settings: for inhibition at 1 µM: 1 μM test compound, 8 hr, read-out: Inh. ATF6-Luc @ 1 μM [%]
Protocol: Human bone osteosarcoma (U2-OS) cells were obtained from the American Type Culture Collection (ATCC HTB-96, ATCC Manassas, VA) and were cultured with growing medium containing Dulbecco's Modified Eagle's Medium (DMEM) (Cat. No.:SH30023.02, HyClone) supplemented with fetal bovine serum (FBS) 10% (Cat. No.: 16000044, Gibco) and 1% penicillin-streptomycin antibiotic cocktail (Cat. No.: SV30010, Hyclone).
Cignal Lenti ATF6 luc reporter (Qiagen #CLS-6031L) was used to produce a stable cell line in U2-OS cells. […] The number of response elements as well as the intervening sequence between response elements has been experimentally optimized to maximize the signal to noise ratio.
Compounds were prepared as 10 mM stock solutions and stored at −80° C.
U2-OS ATF6 luc reporter cells were thawed 3-4 days and split once prior to assays. […] At the day of experiment, cells were pre-treated for 30 min with 50 μL growing medium containing either vehicle (dimethyl sulfoxide (DMSO)) (Cat. No.: D2650, Sigma-Aldrich) or 1 μM test compound. After the pre-incubation time, 50 μL of a solution containing 0.2 μM thapsigargin (Tg)(an ER stress inducer) was added to respective wells. This Tg solution also contained vehicle or test compounds at 1 μM. The final concentration of DMSO in each well was kept at 0.3%. Plates were incubated for 8 hr in humidified chambers.
Finally, after 8 hr, plates were cooled to room temperature for 10 min prior to luciferase assays. Luciferase reactions were performed using Luciferase Assay System (Cat. No.: E4550, Promega). Briefly, each well was washed with 100 μl of PBS1X and then 20 μl of lysis reagent were added into each well. Plates were shaken for 10 min, then 50 μl of Luciferase Assay Reagent were added to each well and luminescence was read with an integration time of 1 s and a gain of 110 in a Synergy 4 Microplate reader.
For the assessment of the half-maximal inhibitory concentration (IC50) for selected compounds, dose-response assays were performed. Compounds were serially diluted using DMSO starting at 30 μM until 1 nM. The assays were run as described above.

[1] = Homo sapiens, U2OS, 8 h, thapsigargin-induced ER stress, U2-OS ATF6 luc reporter cells
[2] = Homo sapiens, U2OS, dose-response 30 μM to 1 nM, thapsigargin-induced ER stress, U2-OS ATF6 luc reporter cells, read-out: IC50 ATF6-Luc reporter

Row | Structure (SMILES) | IC50 [2] [µM] | IC50 [µM] | Inh. ATF6-Luc @ 1 μM [%] (8 h) | inhibition at 1 µM [1] [%] | inhibition at 1 µM (Homo sapiens, U2OS, thapsigargin-induced ER stress, U2-OS ATF6 luc reporter cells) [%]
1 | CC(c1ccc(C(F)(F)F)cc1C(F)(F)F)n1cc(NC(=O)c2cc(-c3ccccn3)on2)cn1 (single isomer, unassigned) [“Enantiomer B” of Example S5, N-(1-(1-(2,4-bis(trifluoromethyl)phenyl)ethyl)-1H-pyrazol-4-yl)-5-(pyridin-2-yl)isoxazole-3-carboxamide] | – | > 10 | + (+ refers to <25% inhibition at 1 μM) | – | –
2 | CC(c1ccc(C(F)(F)F)cc1C(F)(F)F)n1cc(NC(=O)c2cc(-c3ccco3)on2)cn1 (single isomer, unassigned) [“Enantiomer B” of Example S6, N-(1-(1-(2,4-bis(trifluoromethyl)phenyl)ethyl)-1H-pyrazol-4-yl)-5-(furan-2-yl)isoxazole-3-carboxamide] | – | > 10 | + (+ refers to <25% inhibition at 1 μM) | – | –
3 | CC(=O)c1cc(C(=O)Nc2cnn(Cc3ccc(C(F)(F)F)cc3C(F)(F)F)c2)no1 [Compound 3, 5-acetyl-N-(1-(2,4-bis(trifluoromethyl)benzyl)-1H-pyrazol-4-yl)isoxazole-3-carboxamide] | > 10 | – | – | < 25 | –
4 | O=C(Nc1cnn(Cc2ccc(C(F)(F)F)cc2C(F)(F)F)c1)c1nc(-c2cccc(F)c2)no1 [Compound 4, N-(1-(2,4-bis(trifluoromethyl)benzyl)-1H-pyrazol-4-yl)-3-(3-fluorophenyl)-1,2,4-oxadiazole-5-carboxamide formate] | > 10 | – | – | – | < 25
5 | O=C(Nc1cnn(Cc2ccc(C(F)(F)F)cc2C(F)(F)F)c1)c1cc(-c2ccncc2)on1 [Compound 10, N-(1-(2,4-bis(trifluoromethyl)benzyl)-1H-pyrazol-4-yl)-5-(pyridin-4-yl)isoxazole-3-carboxamide] | 1 to 10 | – | – | < 25 | –
6 | O=C(Nc1cnn(Cc2ccc(C(F)(F)F)cc2C(F)(F)F)c1)c1cncc(-c2ccccc2)c1 [Compound 21, N-(1-(2,4-bis(trifluoromethyl)benzyl)-1H-pyrazol-4-yl)-5-phenylnicotinamide] | > 10 | – | – | < 25 | –
7 | O=C(Nc1cnn(Cc2ccc(C(F)(F)F)cc2C(F)(F)F)c1)c1ccon1 [Compound 23, N-(1-(2,4-bis(trifluoromethyl)benzyl)-1H-pyrazol-4-yl)isoxazole-3-carboxamide] | > 10 | – | – | < 25 | –
8 | O=C(Nc1cnn(Cc2c(Cl)cccc2Cl)c1)c1cc(-c2ccco2)on1 [Compound 24, N-(1-(2,6-dichlorobenzyl)-1H-pyrazol-4-yl)-5-(furan-2-yl) isoxazole-3-carboxamide] | > 10 | – | – | < 25 | –
9 | N#Cc1ccc(Cn2cc(NC(=O)c3cc(-c4ccco4)on3)cn2)cc1C(F)(F)F [Compound 26, N-(1-(4-cyano-3-(trifluoromethyl)benzyl)-1H-pyrazol-4-yl)-5-(furan-2-yl)isoxazole-3-carboxamide] | > 10 | – | – | < 25 | –
10 | O=C(Nc1cnn(-c2ccc(C(F)(F)F)cc2C(F)(F)F)c1)c1cc(-c2ccco2)on1 [Compound 27, N-(1-(2,4-bis(trifluoromethyl)phenyl)-1H-pyrazol-4-yl)-5-(furan-2-yl)isoxazole-3-carboxamide] | > 10 | – | – | < 25 | –
11 | O=C(Nc1cnn(Cc2cc(C(F)(F)F)cc(C(F)(F)F)c2)c1)c1cc(-c2ccco2)on1 [Compound 28, N-(1-(3,5-bis(trifluoromethyl)benzyl)-1H-pyrazole-4-yl)-5-(furan-2-yl)isoxazole-3-carboxamide] | > 10 | – | – | < 25 | –
12 | Cc1nn(Cc2ccc(C(F)(F)F)cc2C(F)(F)F)cc1NC(=O)c1cc(-c2ccccn2)on1 [Compound 29, N-(1-(2,4-bis(trifluoromethyl)benzyl)-3-methyl-1H-pyrazol-4-yl)-5-(pyridin-2-yl)isoxazole-3-carboxamide] | > 10 | – | – | < 25 | –
13 | Cc1c(NC(=O)c2cc(-c3ccccn3)on2)cnn1Cc1ccc(C(F)(F)F)cc1C(F)(F)F [Compound 30, N-(1-(2,4-bis(trifluoromethyl)benzyl)-5-methyl-1H-pyrazol-4-yl)-5-(pyridin-2-yl)isoxazole-3-carboxamide] | 1 to 10 | – | – | 25 to 50 | –
14 | O=C(Nc1cnn(Cc2ccc(C(F)(F)F)cc2C(F)(F)F)c1)c1cc(-c2ncccc2Cl)on1 [Compound 31, N-(1-(2,4-bis(trifluoromethyl)benzyl)-1H-pyrazol-4-yl)-5-(3-chloropyridin-2-yl)isoxazole-3-carboxamide] | > 10 | – | – | < 25 | –

Second part, led by results:

Row | IC50 [2] [µM] | Structure (SMILES) | IC50 [µM] | Inh. ATF6-Luc @ 1 μM [%] (8 h) | inhibition at 1 µM [1] [%] | inhibition at 1 µM (Homo sapiens, U2OS, thapsigargin-induced ER stress, U2-OS ATF6 luc reporter cells) [%]
15 | > 10 | CC(C)(O)c1cc(C(=O)Nc2cnn(Cc3ccc(C(F)(F)F)cc3C(F)(F)F)c2)no1 [Compound 2, N-(1-(2,4-bis(trifluoromethyl)benzyl)-1H-pyrazol-4-yl)-5-(2-hydroxypropan-2-yl)isoxazole-3-carboxamide] | – | – | < 25 | –
16 | > 10 | CC(C)(C)c1cc(C(=O)Nc2cnn(Cc3ccc(C(F)(F)F)cc3C(F)(F)F)c2)no1 [Compound 13, N-{1-[2,4-bis(trifluoromethyl)benzyl]-1H-pyrazol-4-yl}-5-tert-butyl-1,2-oxazole-3-carboxamide] | – | – | < 25 | –
17 | > 10 | O=C(Nc1cnn(Cc2ccc(C(F)(F)F)cc2C(F)(F)F)c1)c1cncc(-c2cccnc2)c1 [Compound 15, N-(1-(2,4-bis(trifluoromethyl)benzyl)-1H-pyrazol-4-yl)-[3,3′-bipyridine]-5-carboxamide] | – | – | < 25 | –
18 | > 10 | O=C(Nc1cnn(Cc2ccc(C(F)(F)F)cc2C(F)(F)F)c1)c1cc(-c2ccc(F)cc2F)on1 [Compound 16, N-(1-(2,4-bis(trifluoromethyl)benzyl)-1H-pyrazol-4-yl)-5-(2,4-difluorophenyl)isoxazole-3-carboxamide] | – | – | < 25 | –
19 | > 10 | O=C(Nc1cn(Cc2ccc(C(F)(F)F)cc2C(F)(F)F)cn1)c1cc(-c2ccco2)on1 [Compound 17, N-(1-(2,4-bis(trifluoromethyl)benzyl)-1H-imidazol-4-yl)-5-(furan-2-yl)isoxazole-3-carboxamide] | – | – | < 25 | –
20 | > 10 | O=C(Nc1cnn(C2Cc3ccccc3C2)c1)c1cc(-c2ccco2)on1 [Compound 18, N-(1-(2,3-dihydro-1H-inden-2-yl)-1H-pyrazol-4-yl)-5-(furan-2-yl) isoxazole-3-carboxamide] | – | – | < 25 | –
21 | > 10 | O=C(Nc1cnn(Cc2ccc(C(F)(F)F)cc2C(F)(F)F)c1)c1cncc(-c2ccc(F)cc2)c1 [Compound 20, N-(1-(2,4-bis(trifluoromethyl)benzyl)-1H-pyrazol-4-yl)-5-(4 fluorophenyl)nicotinamide] | – | – | < 25 | –
22 | > 10 | N#Cc1ccc(Cn2cc(NC(=O)c3cc(-c4ccco4)on3)cn2)cc1 [Compound 25, N-(1-(4-cyanobenzyl)-1H-pyrazol-4-yl)-5-(furan-2-yl)isoxazole-3-carboxamide] | – | – | < 25 | –
23 | > 10 | CC(c1ccc(C(F)(F)F)cc1C(F)(F)F)n1cc(NC(=O)c2cc(-c3ncccc3Cl)on2)cn1 (stereo not shown) [Compound 32, N-(1-(1-(2,4-bis(trifluoromethyl)phenyl)ethyl)-1H-pyrazol-4-yl)-5-(3-chloropyridin-2-yl)isoxazole-3-carboxamide] | – | – | < 25 | –
